Like-named read-outs stand apart in the source and are kept apart here.
Tests used:
gastric mucosa = type: in vivo, rats
Procedure: The action of equimolecular doses of TF 914 and acetylsalicylic acid on gastric mucosa was evaluated by administering the products by the oral route to rats fasted for 18 hours at least.

[1] = tested on: Phenylquinone writhing in the mouse; test: Analgesic activity - phenylquinone writhing test (Siegmund method); type: in vivo; details: for Mean number of writhings: equimolecular doses os (acetylsalicylic acid 100 mg/kg, TF 914 180 mg/kg) 30 min. before i.p. phenylquinone; for N. animals showing writhing / % inhib. vs. contr.: os (acetylsalicylic acid 100 mg/kg, TF 914 180 mg/kg); for % inhib. vs. contr.: writhings
Procedure: The analgesic activity was studied by the quinone writhing test in the mouse according to the method of Siegmund E. et al. (Proc. Soc. Exp. Biol. Med., 1957, 95, 729). TF 914 was orally administered, in comparison with acetylsalicylic acid, in equimolecular doses. The two drugs were administered 30 min. before intraperitoneal injection of phenylquinone.

[2] = tested on: Carrageenin oedema in the rat; test: Antiinflammatory activity - carrageenin oedema test (Winter method); type: in vivo; details: for PAW/VOLUME ml/10 - M ± ES 2h / PAW/VOLUME ml/10 - M ± ES 4h / PAW/VOLUME ml/10 - M ± ES 6h / PAW/VOLUME ml/10 - M ± ES 8h / PAW/VOLUME ml/10 - M ± ES 24h / PAW/VOLUME ml/10 - M ± ES Basal: equimolecular doses p.o. (ASA 100 mg/kg, TF 914 180 mg/kg) 30 minutes before carrageenin; for PAW/VOLUME ml/10 - M ± ES Basal: 10 animals; for AREAS Δ % M ± ES: area of the oedema curve; for AREAS Δ % M ± ES / AREAS inhib. vs. contr.: p.o. (ASA 100 mg/kg, TF 914 180 mg/kg); for AREAS inhib. vs. contr.: inhibition of area vs. control
Procedure: Antiinflammatory activity of TF 914 was evaluated by means of the carrageenin oedema test in the rat, according to the method of Winter, Rissly, Ness (Proc. Soc. Exp. Biol. Med., 1962, 111, 544), in comparison with acetylsalicylic acid at equimolecular doses.
The compound under test and acetylsalicylic acid, as a comparison, were administered by the oral route 30 minutes before subplantar injection of carrageenin. […]
The obtained results, which are shown in table 2, evidence the marked antiinflammatory activity of TF 914, said activity being higher than that of acetylsalicylic acid in equimolecular doses, under the experimental conditions used.

[3] = tested on: carrageenin induced pleuritis; test: Antiinflammatory activity - carrageenin induced pleuritis test (Vinegar method); type: in vivo, rat; details: 5 h; for EXUDATE VOLUME ml: 100 mg/kg p.o. 1 hour before carrageenin; for N. LEUKOCYTES % inhib. vs. contr. / EXUDATE VOLUME % vs.contr. / N. LEUKOCYTES ml: 100 mg/kg p.o.; for EXUDATE VOLUME % vs.contr.: protection on exudate volume; for N. LEUKOCYTES ml: total number of leukocytes in pleuric exudate
Procedure: The antiinflammatory activity was tested by the carrageenin induced pleuritis test in the rat, according to the method of Vinegar R. et al. (Proc. Soc. Exp. Biol. Mod., 1973, 143, 3).
TF 914 and phenylbutazone as a control were administered orally in equiponderal doses, 1 hour before the carrageenin injection in the pleuric cavity.
Five hours later the animals were killed, and volume of the pleuric exudate and total number of leukocytes therein were evaluated.

[4] = tested on: bronchosecretolytic activity; test: Bronchosecretolytic activity (Mawatari method); type: in vivo, male Wistar rat; details: equimolecular doses os (TF 914 360 mg/kg, Thiola 200 mg/kg); 10 animals
Procedure: The bronchosecretolytic activity was evaluated in the male Wistar rat by oral administration of TF 914 ac cording to the method of Mawatari (Mawatari H. Kagoshima Daigaku Igaku-Zasshi- 27, 561, 1976), in comparison with Thiola®, in equimolecular doses.

[5] = Pharmacokinetics after oral administration, HPLC; type: in vivo; details: rat, equimolecular doses, vs. acetylsalicylic acid and Thiola
Procedure: The pharmakinetics studies on TF 914 were carried out in the rat, in comparison with acetylsalicylic acid and Thiola®, after oral administration of equimolecular doses of the three compounds.
Measurements were performed by HPLC.

[6] = Acute toxicity by single administration (LD50, Litchfield and Wilcoxon); details: in vivo
Procedure: Toxicity by single administrations of TF 914 was studied in the mouse and the rat, by oral and intraperitoneal route.
LD₅₀ values were calculated according to the method of Litchfield and Wilcoxon (J. Pharm. Exp. Therap., 1949, 96, 99).
The obtained results, which are summarized in table 1, evidenced that TF 914 has no toxicity.

SMILES	Mean number of writhings [1]	N. animals showing writhing [1]	% inhib. vs. contr. [1] [%]	PAW/VOLUME ml/10 - M ± ES 2h [2]	PAW/VOLUME ml/10 - M ± ES 4h [2]	PAW/VOLUME ml/10 - M ± ES 6h [2]	PAW/VOLUME ml/10 - M ± ES 8h [2]	PAW/VOLUME ml/10 - M ± ES 24h [2]	PAW/VOLUME ml/10 - M ± ES Basal [2]	AREAS Δ % M ± ES [2]	AREAS inhib. vs. contr. [2]	EXUDATE VOLUME ml [3]	N. LEUKOCYTES % inhib. vs. contr. [3]	N. LEUKOCYTES ml [3]	% increase of FlNa in comparison with controls [4] [%]	other results
CC(=O)Oc1ccccc1C(=O)O [ASA, Acetylsalicylic acid, reference compound]	1.4 ± 0.9	3/10	89.06	58,3 ± 2,5 ml/10	66,0 ± 3,0 ml/10	59,3 ± 1,7 ml/10	52,8 ± 2,6 ml/10	45,3 ± 1,5 ml/10	43,1 ± 1,5 ml/10	161,5 ± 20,9%	37,0					Ulcer size (mm) x ± es (gastric mucosa; equimolecular doses os (ASA 100 mg/kg, TF 914 180 mg/kg), rats fasted at least 18 hours, 6 hours after treatment): 3.6 ± 1.34 mm; gastro-injuring action (in words) (gastric mucosa; examination of the mucosa 6 hours after oral treatment, equimolecular doses): marked gastro-injuring effects
CCCCC1C(=O)N(c2ccccc2)N(c2ccccc2)C1=O [PHENYLBUTAZONE, phenylbutazone, reference compound]												1,75 ±2,25 ml	36,7%	8,52 ±1,27 ml		EXUDATE VOLUME % vs.contr. [3]: 28,9%
CC(SC1(C)OC(=O)c2ccccc2O1)C(=O)NCC(=O)O (stereo not drawn) [TF 914, 2-methyl-2[1-(carboxy-methyl-amino-carbonyl)ethyl]thio-4-oxo-benzodioxane-1.3]	1.8 ± 1.1	3/10	85.93	53,3 ± 1,6 ml/10	60,4 ± 2,0 ml/10	61,8 ± 2,7 ml/10	54,5 ± 2,8 ml/10	45,1 ± 1,5 ml/10	42,8 ± 0,7 ml/10	145,4 ± 20,4%	43,3	1,79 ±0,25 ml	19.5%	10,84 ±1,32 ml	35.6	gastro-injuring action (in words) (gastric mucosa; rat, in vivo, po): substantially has no gastro-injuring action; N. LEUKOCYTES % inhib. vs. contr. ([3]; listed as MR 914): 19,5%; EXUDATE VOLUME % vs.contr. ([3]; 100 mg/kg): 27.2%; EXUDATE VOLUME % vs.contr. ([3]; listed as MR 914, 100 mg/kg): 27,2%; bioavailability (in words) [5]: better bioavailability; persistence in blood stream (in words) [5]: remain in blood stream for longer periods; LD50 ([6]; ip, Mouse): > 3000 mg/kg; LD50 ([6]; po, Mouse, os): > 3000 mg/kg; LD50 ([6]; po, Rat, os): > 3000 mg/kg
CC(S)C(=O)NCC(=O)O (stereo not drawn) [Thiola®, reference compound]															33.4	

Reference: patent publication EP0272223A1, “4-Oxo-1,3-benzodioxane derivative” (FARMACEUTICI CABER S.p.A., priority 1987, dated 1988)
